Literature values as cited in patent US20160302965A1, “IMPLANTABLE THERAPEUTIC DEVICES” (ForSight Vision4, Inc., priority 2013, published 2016).

Row | solubility of the prodrug (concentration maintained in the fluid boundary layer) [µg/mL] | solubility in PBS at pH 7 (pH 7) [ug/ml] | solubility at pH 7 (pH 7) | SMILES
1 | 300 | 300 | – | CCNC(=O)CCC/C=C\C[C@@H]1[C@@H](/C=C/[C@@H](O)CCc2ccccc2)[C@H](O)C[C@@H]1O [bimatoprost]
2 | – | – | about 600 ug/ml | Brc1c(NC2=NCCN2)ccc2nccnc12 [brimonidine]
3 | – | 800 | – | O=C(O)CCC/C=C\C[C@@H]1[C@@H](CC[C@@H](O)CCc2ccccc2)[C@H](O)C[C@@H]1O [latanoprost free acid]
4 | – | 50 | – | CC(C)OC(=O)CCC/C=C\C[C@@H]1[C@@H](CC[C@@H](O)CCc2ccccc2)[C@H](O)C[C@@H]1O [latanoprost]
